# Target: P2X3 (Homo sapiens (Human), UniProt P56373)
# Assay: Calcium uptake assay (P2X antagonist assay), P2X3
# Format: cell-based
# Conditions: inhibition of agonist-induced calcium influx
# Excerpt: Human P2X3 (Accession no. NM_002559), P2X2 (Accession no. NM_170682) and Rat P2X3 (Accession no. NM_031075) and P2X2 (Accession no. NM_053656) are cloned into a mammalian expression vector (e.g., pcDNA5/TO or pcDNA3 Invitrogen). The human P2X2/3 chimera clone is created as described by Neelands et al, and then cloned into an expression vector as above. Receptors are expressed in cells (e.g., HEK293 or 1321N1 (obtained from the ECACC)) via transient transfection using standard lipid mediated transfection, or by creation of stable transfectants for each receptor. For expression of the P2X2/3 heteromeric receptor, the P2X3 expression vector is stably transfected into a cell line already stably expressing P2X2. P2X2/3 heteromer function is isolated using pharmacological methods. Cell lines are maintained in DMEM+5% Glutamax, the appropriate level of selective antibiotic, and 10% heat inactivated FBS.
# Functional activity of compounds at the P2X receptor is determined by measuring their ability to inhibit agonist-induced calcium influx. Compounds are tested for antagonist activity against the P2X2/3 chimera, the P2X3 homomer, or the P2X2/3 heteromer. At the start of each screening day, the agonist EC50 is determined. Compound % inhibition or IC50s are subsequently determined using a pre-determined agonist concentration (EC50-90 depending on cell line) as a stimulus. The agonists used are αβMeATP, ATP, or other ATP analogs. Compounds may be tested at concentrations ranging from 1 μM to 10 μM.
# To test for antagonist activity, cells expressing the appropriate receptor are seeded onto 96 or 384 well plates 18-24 hours prior to assay. On the day of the assay, cells are loaded with calcium-sensitive fluorescent dye (e.g., Fluo-4 no wash reagent-Invitrogen cat#F36206, or the BD™ PBX Calcium Assay Kit—BD cat#640175) in Hank's Buffered Salt Solution (HESS) with up to 10 mM supplemental CaCl2. Plates are incubated at 37° C. and then equilibrated at room temperature. Antagonism of agonist-induced calcium influx is measured using a fluorescent imaging plate reader (e.g. FLIPR^TETRA, Molecular Devices, Sunnyvale, Calif.). The assay comprises two stages: a pre-treatment phase followed by a treatment phase. Compounds may be tested as follows: For the pre-treatment phase, 50 μL of 3× concentration of test compound in HBSS is added to cells containing 100 μL of dye loading media to achieve a final concentration of 1× test compound. For the treatment phase, at a set interval after pre-treatment (1-30 minutes), 50 μL of 1× test compound plus […] solution is added, resulting in a final concentration of 1× compound and 1× agonist. Fluorescence is measured at 0.1-3 second intervals—with an excitation wavelength of 494 nm and an emission wavelength of 515 nm. Responses are measured as (peak fluorescence after agonist addition) minus (baseline fluorescence prior to treatment). Percent inhibition is calculated as follows: […]
# IC50 values are determined by analyzing dose response data in a 4 parameter logistic fit using GraphPad Prizm.
# P2X3, sequence (P56373 whole entry): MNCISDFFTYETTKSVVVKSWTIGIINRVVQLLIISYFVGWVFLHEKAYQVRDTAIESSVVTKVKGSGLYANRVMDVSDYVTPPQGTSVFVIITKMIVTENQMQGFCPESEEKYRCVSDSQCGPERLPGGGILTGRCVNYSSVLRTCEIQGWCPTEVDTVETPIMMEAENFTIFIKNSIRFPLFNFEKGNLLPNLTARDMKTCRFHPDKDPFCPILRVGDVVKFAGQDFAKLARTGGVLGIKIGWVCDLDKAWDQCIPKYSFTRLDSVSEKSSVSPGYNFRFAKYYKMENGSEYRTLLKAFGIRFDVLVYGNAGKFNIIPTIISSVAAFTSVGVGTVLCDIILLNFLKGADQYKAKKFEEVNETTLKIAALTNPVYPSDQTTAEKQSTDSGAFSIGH
row,SMILES,IC50 [µM]
1,"Cc1ccc(N2CCc3ncnc(NC(C)c4cccc(C(F)(F)F)c4)c3C2)nc1 (stereo not drawn) [Compound 4, [6-(5-Methyl-pyridin-2-yl)-5,6,7,8-tetrahydro-pyrido[4,3-d]pyrimidin-4-yl]-[1-(3-trifluoromethyl-phenyl)-ethyl]-amine]",0.301
2,"Cc1ccc(N2CCc3ncnc(N[C@@H](C)c4ccc(Cl)cc4)c3C2)nc1 [Compound 6, [(S)-1-(4-Chloro-phenyl)-ethyl]-[6-(5-methyl-pyridin-2-yl)-5,6,7,8-tetrahydro-pyrido[4,3-d]pyrimidin-4-yl]-amine]",> 7.2
3,"Cc1ccc(N2CCc3ncnc(NC(C)c4ccncc4)c3C2)nc1 (stereo not drawn) [Compound 9, [6-(5-Methyl-pyridin-2-yl)-5,6,7,8-tetrahydro-pyrido[4,3-d]pyrimidin-4-yl]-(1-pyridin-4-yl-ethyl)-amine]",0.212
4,"CCc1ccc(C(C)Nc2ncnc3c2CN(c2ccc(C)cn2)CC3)cc1 (stereo not drawn) [Compound 13, [1-(4-Ethyl-phenyl)-ethyl]-[6-(5-methyl-pyridin-2-yl)-5,6,7,8-tetrahydro-pyrido[4,3-d]pyrimidin-4-yl]-amine]",0.603
5,"COc1ccccc1C(C)Nc1ncnc2c1CN(c1ccc(C)cn1)CC2 (stereo not drawn) [Compound 14, [1-(2-Methoxy-phenyl)-ethyl]-[6-(5-methyl-pyridin-2-yl)-5,6,7,8-tetrahydro-pyrido[4,3-d]pyrimidin-4-yl]-amine]",0.137
6,"Cc1ccc(N2CCc3ncnc(NC(C)c4ccccc4Cl)c3C2)nc1 (stereo not drawn) [Compound 15, [1-(2-Chloro-phenyl)-ethyl]-[6-(5-methyl-pyridin-2-yl)-5,6,7,8-tetrahydro-pyrido[4,3-d]pyrimidin-4-yl]-amine]",0.125
7,"Cc1ccc(N2CCc3ncnc(NC(C)c4cccc(Cl)c4)c3C2)nc1 (stereo not drawn) [Compound 16, [1-(3-Chloro-phenyl)-ethyl]-[6-(5-methyl-pyridin-2-yl)-5,6,7,8-tetrahydro-pyrido[4,3-d]pyrimidin-4-yl]-amine]",0.119
8,"Cc1ccc(N2CCc3ncnc(NC(C)c4ccc(C(F)(F)F)cc4)c3C2)nc1 (stereo not drawn) [Compound 26, [6-(5-Methyl-pyridin-2-yl)-5,6,7,8-tetrahydro-pyrido[4,3-d]pyrimidin-4-yl]-[1-(4-trifluoromethyl-phenyl)-ethyl]-amine]",0.245
9,"Cc1ccc(N2CCc3ncnc(NC(C)c4ccc(Cl)cc4Cl)c3C2)nc1 (stereo not drawn) [Compound 27, [1-(2,4-Dichloro-phenyl)-ethyl]-[6-(5-methyl-pyridin-2-yl)-5,6,7,8-tetrahydro-pyrido[4,3-d]pyrimidin-4-yl]-amine]",0.415
10,"Cc1ccc(N2CCc3ncnc(NC(C)c4ccc(Br)cc4)c3C2)nc1 (stereo not drawn) [Compound 28, [1-(4-Bromo-phenyl)-ethyl]-[6-(5-methyl-pyridin-2-yl)-5,6,7,8-tetrahydro-pyrido[4,3-d]pyrimidin-4-yl]-amine]",0.212
11,"CCC(Nc1ncnc2c1CN(c1ccc(C)cn1)CC2)c1ccccc1 (stereo not drawn) [Compound 36, [6-(5-Methyl-pyridin-2-yl)-5,6,7,8-tetrahydro-pyrido[4,3-d]pyrimidin-4-yl]-(1-phenyl-propyl)-amine]",0.397
12,"Cc1ccc(N2CCc3ncnc(N[C@H](CO)c4ccccc4)c3C2)nc1 [Compound 37, (S)-2-[6-(5-Methyl-pyridin-2-yl)-5,6,7,8-tetrahydro-pyrido[4,3-d]pyrimidin-4-ylamino]-2-phenyl-ethanol]",0.161
13,"C[C@@H](Nc1ncnc2c1CN(c1ccc(Cl)cn1)CC2)c1ccc(Cl)cc1 [Compound 40, [(R)-1-(4-Chloro-phenyl)-ethyl]-[6-(5-chloro-pyridin-2-yl)-5,6,7,8-tetrahydro-pyrido[4,3-d]pyrimidin-4-yl]-amine]",0.344
14,CC[C@@H](Nc1ncnc2c1CN(c1ccc(C)cn1)CC2)c1ccccc1 [Compound 42],0.408
15,"COc1ccc([C@@H](C)Nc2ncnc3c2CN(c2ccc(C)cn2)CC3)cc1 [Compound 43, [(R)-1-(4-Methoxy-phenyl)-ethyl]-[6-(5-methyl-pyridin-2-yl)-5,6,7,8-tetrahydro-pyrido[4,3-d]pyrimidin-4-yl]-amine]",0.181
